The source of these data is patent US9388405B2, “Method for identifying a subpopulation of mammalian cells with distinctive ribosome translation profiles” (priority 2009, dated 2016).

What all share (format): cell-based, human
One assay has as its system HCT116 mTRdm-fLUC cells. The assay can be described thus: 5-Assay / 15-Assay toxin assays, fLUC plate reader (Fold Induction).
Assay [1] deals with MCF7 CMV-fLuc subclones #44 and #48. The assay can be described thus: PKC activator dose response, cap-dependent translation (fLuc). As to conditions: single-Toxin, 6 hr. How it is done:
Following 6 hr exposure to the Single-Toxin TPA assay, cells were lysed and fLuc protein activity measured using a standard microplate reader assay. The raw values were averaged and expressed as the ratio of treated to untreated samples (Fold Induction).
Dashed lines represent translational response levels produced by a 100 nM TPA Single-Toxin assay. The Bryostatin 1 concentrations (top panel) encompassed the TPA concentrations used in FIG. 27A. […] The Bryostatin 2 dose response curve (bottom panel) employed higher drug concentrations (the maximal tested dose was 5× the largest TPA and Bryostatin 1 amounts). At the highest tested dose (2.5 uM), Bryostatin 2 produced fLuc activity consistent with the level observed with 100 nM TPA.
In addition to measuring cap-dependent and cap-independent translational effects, Class-specific translational activity and toxin-defined actions, the previously described materials and methods allow for a variety of applications designed to detect and characterize agents and processes that regulate ribosome activity. In this example, comparative dose response assays were used to detect cap-dependent and cap-independent translational regulation in MCF7 cells. The basis for this application was the observation that distinct translational responses are produced by compounds at different doses. When an assortment of compounds act on a common molecular target, they can be grouped into a genus of related drugs. By comparing individual species of a compound genus over a defined dose range, differences in translational regulation can be defined. Furthermore, these translational differences can often be linked to biological differences.
In this example (FIG. 27), the three PKC activators produced similar dose response trends in cap-dependent assays. […] However, macrolide lactones produced translational increases that were generally 60-70% of the TPA translational response (FIG. 27B). In fact, a 25 fold increase in Bryostatin 2 concentration (2.5 uM) was needed to produce a translational magnitude similar to the 100 nM TPA assay (FIG. 27B).

The subject of assay [2] is MCF7 mTRdm-fLuc subclones #8, #27, and #45. The assay can be described thus: PKC activator dose response, cap-independent TR translation (fLuc). To be noted: single-Toxin, 6 hr. As to the method:
Following 6 hr culture with a TPA single-Toxin assay, cells were lysed and fLuc protein activity measured using a standard microplate reader assay. The plate reader values were averaged and expressed as the ratio of treated to untreated samples (Fold Induction).
As with FIG. 27B, dashed lines represent translational response levels achieved by the 100 nM TPA assay in each cell line. […] A further difference between the cap-dependent and cap-independent assays was the observation that increased Bryostatin 2 concentrations (5× the maximal TPA dose) never produced fLUC activity equivalent to the 100 nM TPA assay. Thus, the Toxin Assay procedure can detect a statistically significant difference in cap-dependent and cap-independent translation in compounds that activate PKC activity.
In the cap-independent assays, a similar dose response trend was observed over a 1 nM to 250 nM range with a translational peak at a 100 nM dose. However, the magnitude of the Bryostatin increases were generally 30% of 100 nM TPA response.

Assay [3] concerns HEK293 CMV-fLuc subclone #3. Description: Updated 15-Assay / 21-Assay, cap-dependent translational responses. To be noted: Updated 15-Assay two-Toxin with 100 nM TPA, cap-dependent. From the text: (§1) The dashed line represents the level of translational response in the untreated samples.
Following 6 hr exposure to the compounds, cells were lysed and fLuc protein activity measured using a standard microplate reader assay. The triplicate plate reader values were averaged and expressed as the ratio of treated to untreated samples (Fold Induction). The dashed line represents the level of translational response in the untreated samples.
The 21-Assay procedure employs the same standard toxins as the Updated 15-Assay protocol. The extra 6 assays involve an unknown or an uncharacterized compound and its pairwise combinations with the five toxins: Unknown, Unknown+TPA, Unknown+Colchcine, Unknown+Bortezomib (Velcade), Unknown+Low dose Calon, and Unknown+Hycamtin (Topotecan).
Application of single-Toxin and two-Toxin assays in the Updated 15-Assay protocol was used to define cap-dependent translational responses in the HEK293 CMV-fLuc #3 subclone (FIG. 30A).
The combinatorial process described in this example provides a system for testing translational regulation by unknown compounds. In this example, a 21-Assay setup is described that employs the single and pairwise combinatorial application of 5 toxins, as in a standard 15-Toxin assay, and the addition of a sixth substance. Inclusion of the sixth substance requires the expansion of the assay group to a total of 21 single- and two-Toxin assays. For this example, a control substance (taxol) was selected from the original 15-Assay system.

The subject of assay [4] is MCF7 mTRdm-fLuc subclone #27. The assay can be described thus: Topoisomerase 1 inhibitor single-Toxin and two-Toxin (100 nM TPA) dose response, cap-independent. As to the method:
FIG. 28C illustrates the use of single-Toxin Assays to measure the effects of Topoisomerase 1 inhibitors on cap-independent translation in MCF7 cells. Triplicate samples of the MCF7 mTRdm-fLuc subclone #27 were treated with varying concentrations (10 nM to 10 uM range) of the Topoisomerase 1 inhibitors; camptothecin, rubitecan, irinotecan and topotecan. The plate reader values were averaged and expressed as the ratio of treated to untreated samples (Fold Induction). The dashed line represents the level of translational response in untreated controls.
FIG. 28D illustrates the use of a two-Toxin Combinatorial Assay on the MCF7 mTRdm-fLuc subclone #27 treated with 100 nM TPA plus varying doses (10 nM to 10 uM range) of the Topoisomerase 1 inhibitors. The plate reader values were averaged and expressed as the ratio of treated to untreated samples (Fold Induction). The dashed line represents the level of translational response in untreated samples. All four inhibitors acted synergistically with TPA to increase protein activity in the 10 nM two-Toxin assay.
FIG. 28D illustrates the use of a two-Toxin dose response assay using varying dosages of the TopoI inhibitors in combination with the 100 nM TPA translational activator. All four inhibitors acted synergistically with TPA at low doses to increase protein translation. At concentrations higher than 100 nM, camptothecin, rubitecan, and topotecan antagonized the TPA response and reduced the fLUC expression.

The subject of assay [5] is MCF7 CMV-fLuc subclone #65. The assay can be described thus: Topoisomerase 1 inhibitor single-Toxin and two-Toxin (100 nM TPA) dose response, cap-dependent. To be noted: 10 nM to 10 uM. How it is done:
FIG. 28A illustrates a dose response assay of the MCF7 CMV-fLuc subclone #65 treated with varying doses (10 nM to 10 uM range) of the following Topoisomerase 1 inhibitors: camptothecin, topotecan, irinotecan, and rubitecan. Following a 6 hr incubation in a single-Toxin assay, cells were lysed and fLuc protein activity measured using a standard microplate reader assay. The plate reader values were averaged and expressed as the ratio of treated to untreated samples (Fold Induction). The dashed line represents the level of translational response in untreated cell samples.
FIG. 28B illustrates the use of a Combinatorial Assay to examine the effects of Topoisomerase 1 inhibitors on cap-dependent translation. A series of dose response assays were performed on the MCF7 CMV-fLuc subclone #65 using varying doses of the Topoisomerase 1 inhibitors (10 nM to 10 uM range) in a Two-Toxin assay with a constant 100 nM TPA dose. The plate reader values were averaged and expressed as the ratio of treated to untreated samples (Fold Induction). The dashed line represents the level of translational response in untreated samples.
FIG. 28A illustrates a cap-dependent dose response assay of MCF7 cells treated with varying dosages (10 nM to 10 uM range) of the following TopoI inhibitors: camptothecin, topotecan, irinotecan, and rubitecan. […] While the altered irinotecan response might have been predicted based on its metabolic requirements, the lack of topotecan action on cap-dependent translation in the single-Toxin assays was unexpected.
Since similar doses inhibited translation in the single-Toxin assays (FIG. 28A), this effect might have represented a direct effect on translation.

Assay [6] concerns HEK293 mTRdm-fLuc subclone #13 and HEK293 hTRdm-gLuc subclone #79. The assay can be described thus: Updated 15-Assay / 21-Assay, TR translational responses (fLuc, gLuc). As to conditions: Updated 15-Assay, High Dose 10 uM, single- and two-Toxin. How it is done: as §1
As before, secreted Gaussia Luciferase (gLUC) activity was measured in conditioned media 6 hr after drug application and protein activity expressed as the ratio of treated to untreated samples (Fold Induction). The dashed line represents the translational response in untreated cells.
The dashed line represents the translational response produced by untreated cell samples.
Following a 6 hr culture time, secreted gLuc activity was measured in conditioned media using a standard microplate reader assay and expressed as the ratio of treated to untreated samples (Fold Induction). The dashed line represents the level of translational response in the untreated samples. Given that the gLuc protein is secreted into the media, it escapes the cytoplasmic protein turnover processes acting on the fLUC protein. Therefore, any difference in the apparent TR response is a likely result of variation in reporter protein synthesis, secretion or reduced protein turnover.
The 21-Assay procedure employs the same standard toxins as the Updated 15-Assay protocol. The extra 6 assays involve an unknown or an uncharacterized compound and its pairwise combinations with the five toxins: Unknown, Unknown+TPA, Unknown+Colchcine, Unknown+Bortezomib (Velcade), Unknown+Low dose Calon, and Unknown+Hycamtin (Topotecan). […]

Method for HCT116 mTRdm-fLUC cells: The 5-Assay and 15-Assay procedures were applied to cellular pools using either of two growth procedures (e.g. a Cell Count or Confluence growth assay). For a Cell Count assay, cells from the P1 pool dish were counted and passed into a white clear bottom 96-well microtiter tray at a density of 25,000 cells per well; the leftover cells were passed into a passage 2 (P2) dish. Cells in the microtiter plate were allowed to grow for about 40 hr to achieve a ˜75% cell confluence prior to incubation with a toxic agent. Then cells in a microtiter plate were treated with complete growth medium containing either no toxin or an optimal toxin, defined as a single or multiple toxin assay that produces a maximal translational response (taken from Table 3) and incubated for 6 hours at 37° C. Each treatment was performed on triplicate wells.
After toxin incubation, cells were examined by phase contrast microscopy for signs of detachment. If more than ˜10% of cells were detached, the 96-well plates were centrifuged at 1200 rpm for 3 min to pellet the detached cells. The media were removed and replaced with 50 μL of Cell Lysis Buffer (25 mM Tris-phosphate (pH7.8), 10% glycerol, 1% Triton X-100, 1 mg/ml BSA, 2 mM EGTA and 2 mM DTT). Cells were incubated with the Cell Lysis Buffer for 10 min at RT and cell lysis was verified using a phase contrast microscope. To ensure complete lysis, the lysates were vigorously agitated using the multichannel pipettor. Any air bubbles formed as a result of agitation were manually removed with a syringe needle. Luminescence was measured using the FLUOstar Optima (BMG Labtech) microplate reader. To develop luminescence, wells were injected with 5 μL of the D-luciferin solution dissolved in Reaction Buffer (25 mM Glycylglycine (pH 7.8), 15 mM MgSO4, 4 mM EDTA, 15 mM Potassium phosphate, 1 mM DTT, 1 mM Coenzyme A, 6.7 mM ATP and 3.35 mM D-luciferin). After 4 sec with shaking, luminescence values were measured using the lens filter at gains of 2500-4000.
Light values were converted to Fold Induction using the ratio of values produced by treated and untreated cells. The maximal TR-specific translational response produced by the 5-Toxin or 15-Toxin assay was used to assign an optimal toxin assay (maximal translational response) which was subsequently used to screen subclones derived from this pool and to assign a Class designation. […]
In one test, the 5-Assay procedure (Table 3) was applied to HCT116 mTRdm-fLUC 12-16 subclone #30 cells (FIG. 1A). […] Samples were then processed with Lysis buffer and read in a plate reader. […]
Triplicate samples of HCT116 mTRdm-fLUC 12-16 Sub#30 cells were cultured with the two-Toxin assays using a standard plate reader protocol (FIG. 1C). […]

Consider `CCCCCCCCCCCCCC(=O)O[C@@H]1[C@@H](C)[C@@]2(O)[C@@H](C=C(CO)C[C@]3(O)C(=O)C(C)=C[C@@H]23)[C@@H]2C(C)(C)[C@]12OC(C)=O` [TPA, 12-O-tetradecanoylphorbol-13-acetate], for which, in the assay with HCT116 mTRdm-fLUC cells (5-Assay, 6 hr, HCT116 mTRdm-fLUC 12-16 subclone #38), the “TR-specific toxin response” value was “Maximal TR-specific toxin responses”. In addition, in the assay on HCT116 mTRdm-fLUC cells (5-Assay, TPA single-Toxin 100 nM, 6 hr, HCT116 mTRdm-fLUC 12-16 subclone #30), the “increase in reporter activity (maximal TR-specific response)” value is on record as 800-1200%. In addition, the “dose giving maximal reporter level (translational peak)” value in assay [1] was 100 nM. The “dose giving peak fLuc protein activity” value in assay [2] was determined as 100 nM.
Consider `CNc1ccc2oc(C[C@H]3O[C@@]4(CC[C@H]3C)O[C@H]([C@H](C)C(=O)c3ccc[nH]3)[C@H](C)C[C@H]4C)nc2c1C(=O)O` [calcimycin, Calcimycin], for which the “effect on the TPA response” value in assay [3] is listed as “TPA response was antagonized”.
Regarding `CCCC(=O)Nc1ncnc2c1ncn2[C@@H]1O[C@@H]2COP(=O)(O)O[C@H]2[C@H]1OC(=O)CCC` [dbcAMP, Dibutyryl-cyclic AMP], the “translational response” value in the assay with HCT116 mTRdm-fLUC cells (dbcAMP single-Toxin assay, HCT116 mTRdm-fLUC transformed subclones) was “minimal translational response”.
Turning to `CC(C)C[C@H](NC(=O)[C@H](Cc1ccccc1)NC(=O)c1cnccn1)B(O)O` [Velcade, [(1R)-3-methyl-1-[[(2S)-1-oxo-3-phenyl-2-[(pyrazinylcarbonyl)amino]propyl]amino]butyl] boronic acid], the “effect on the TPA response” value in assay [3] is “TPA response was antagonized”.
In the case of `CC[C@@]1(O)C(=O)OCc2c1cc1n(c2=O)Cc2cc3c(CN(C)C)c(O)ccc3nc2-1.Cl` [topotecan, (S)-10-[(dimethylamino)methyl]-4-ethyl-4,9-dihydroxy-1H-pyrano[3′,4′:6,7]indolizino[1,2-b]quinoline-3,14(4H,12H)-dione monohydrochloride], the “effect on cap-independent translation” value in assay [4] (single-Toxin, 10 nM to 10 uM) is “exhibited reduced fLUC activity at higher doses (5 uM and 10 uM)”. The “effect on TPA activity” value in assay [4] (two-Toxin with 100 nM TPA, 10 nM to 10 uM) is “antagonized the TPA activity and exhibited reduced fLUC expression”. Also, the “fLUC expression at the highest dose” value in assay [4] (two-Toxin with 100 nM TPA, highest dose) is “basal level expression”. Moreover, in assay [3], the “effect on the TPA response” value was “TPA response was antagonized”. Moreover, the “effect on cap-dependent translation” value in assay [5] (single-Toxin) was “neither topotecan or irinotecan significantly altered cap-dependent translation”. For the same compound, the “effect on TPA-specific translational response” value in assay [5] (two-Toxin with constant 100 nM TPA, cap-dependent) is “showed only the TPA inhibitory effect at high doses (i.e. 5 uM and 10 uM)”. Also, in assay [6], the “effect on translation” value is “inhibitory effect of Topotecan (HD) was evident in all Single- and two-Toxin assays”.
